This passage reports IC50 results from patent publication US20250236611A1, “PYRAZOLE COMPOUNDS AND USES THEREOF” (ALCON INC., priority 2021, published 2025).

Common to all, as to assay type: biochemical
Settings in all cases: 10 nM JAK enzyme, 800 nM Abl peptide, room temperature 75 min

The target in one test is JAK1 (Homo sapiens, UniProt P23458). As to the kind of experiment: JAK assay (KINASE-GLO luminescent kinase assay), JAK1. Here is the method: (§1) All compounds were initially prepared as 10 mM stocks in anhydrous dimethylsulfoxide (DMSO). A 20 μL aliquot of the 10 mM solutions was transferred to individual wells in column 1 of a 96-well polypropylene microtiter plate (Corning #3363) and diluted with DMSO to give a final compound concentration of 4 mM. Test compounds were then serially diluted 1:5 in DMSO for an 11-point concentration response and further diluted in the assay buffer bringing all compound concentrations to a final range of 100 μM to 10 pM in 2.5% DMSO. The assay was performed in white 96-well, flat-bottom, half-area, non-binding assay plate (Corning #3642) in assay buffer consisting of 20 mM HEPES (pH 7.5), 10 mM MgCl2*6H2O, 100 μM sodium orthovanadate, 0.05% CHAPS and 0.1% bovine serum albumin. A 10 μL aliquot of compound from each well of the intermediate dilution plate and 20 μL of a 2×JAK substrate/enzyme solution containing acceptor substrate (800 nM Abl peptide), JAK enzyme (10 nM JAK1, JAK2, JAK3, or TYK2), and 1,4-Dithiothreitol (DTT, 2 μM) were added to all wells. The reaction was initiated by the addition of 10 μL of 4× stock solution ATP (2 μM). Reactions were thoroughly mixed manually, covered and allowed to incubate at room temperature for 75 min. Protein kinase activity was quantitated using Promega's KINASE-GLO™ luminescent Kinase Assay Kit according to the manufacturer's directions. ATP concentrations remaining in Test wells following the termination of the enzymatic reaction were compared against control wells containing equivalent amounts of DMSO containing no inhibitor (CTRL). […] Percent of Control (POC) values were determined for each concentration of compound tested according to the equation:
(§2) [formula] • IC50 values were calculated using the following 4-parameter logistic curve-fitting algorithm:
(§3) [formula] • IC50 values were converted to Ki values using the Cheng-Prusoff Equation: […]

A further test addresses T1, JAK3 (Homo sapiens, UniProt P52333).
T1 sequence (P52333 1-1124): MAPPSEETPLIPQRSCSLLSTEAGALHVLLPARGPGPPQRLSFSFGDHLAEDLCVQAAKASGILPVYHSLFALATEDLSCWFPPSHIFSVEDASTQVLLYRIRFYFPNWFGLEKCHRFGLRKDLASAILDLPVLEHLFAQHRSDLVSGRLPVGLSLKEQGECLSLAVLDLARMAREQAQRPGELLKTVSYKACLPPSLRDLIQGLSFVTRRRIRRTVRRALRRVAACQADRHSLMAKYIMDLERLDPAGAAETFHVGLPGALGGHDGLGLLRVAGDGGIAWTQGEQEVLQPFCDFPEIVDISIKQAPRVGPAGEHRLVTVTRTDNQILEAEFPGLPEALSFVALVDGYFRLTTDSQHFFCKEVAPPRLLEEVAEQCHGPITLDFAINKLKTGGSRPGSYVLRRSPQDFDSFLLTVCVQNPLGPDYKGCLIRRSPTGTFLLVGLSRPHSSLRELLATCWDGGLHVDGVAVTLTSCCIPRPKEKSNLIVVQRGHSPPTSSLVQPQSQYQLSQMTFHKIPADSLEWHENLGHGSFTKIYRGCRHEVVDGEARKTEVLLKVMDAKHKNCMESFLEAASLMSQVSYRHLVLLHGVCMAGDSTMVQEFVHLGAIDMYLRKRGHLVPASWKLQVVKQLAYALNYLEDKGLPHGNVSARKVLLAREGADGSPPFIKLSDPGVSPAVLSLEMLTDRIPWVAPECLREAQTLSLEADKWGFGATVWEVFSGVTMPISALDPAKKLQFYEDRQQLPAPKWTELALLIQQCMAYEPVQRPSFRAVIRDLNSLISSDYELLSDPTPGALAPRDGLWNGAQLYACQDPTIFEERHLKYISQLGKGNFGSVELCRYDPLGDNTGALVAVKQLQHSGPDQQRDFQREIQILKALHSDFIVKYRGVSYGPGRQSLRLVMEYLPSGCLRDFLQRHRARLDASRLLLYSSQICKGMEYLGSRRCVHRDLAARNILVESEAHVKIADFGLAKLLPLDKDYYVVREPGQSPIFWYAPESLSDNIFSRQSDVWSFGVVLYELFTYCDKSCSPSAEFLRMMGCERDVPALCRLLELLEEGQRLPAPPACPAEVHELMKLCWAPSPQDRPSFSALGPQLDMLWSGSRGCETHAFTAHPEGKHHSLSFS
Put plainly: JAK assay (KINASE-GLO luminescent kinase assay), JAK3. The procedure:
as §1, §2, §3

The target of the next test is JAK2 (Homo sapiens, UniProt O60674). As to the kind of experiment: JAK assay (KINASE-GLO luminescent kinase assay), JAK2. Here is the method:
as §1, §2, §3

In another test the target is TYK2 (Homo sapiens, UniProt P29597). As to the kind of experiment: JAK assay (KINASE-GLO luminescent kinase assay), TYK2. The procedure:
as §1, with “A 20 μL aliquot of the 10 mM solutions was transferred to individual wells in column 1 of a 96-well polypropylene microtiter plate (Corning #3363) and diluted with DMSO to give a final compound concentration of 4 mM.” left out
as §2, §3

Chain of TYK2 (P29597 whole entry): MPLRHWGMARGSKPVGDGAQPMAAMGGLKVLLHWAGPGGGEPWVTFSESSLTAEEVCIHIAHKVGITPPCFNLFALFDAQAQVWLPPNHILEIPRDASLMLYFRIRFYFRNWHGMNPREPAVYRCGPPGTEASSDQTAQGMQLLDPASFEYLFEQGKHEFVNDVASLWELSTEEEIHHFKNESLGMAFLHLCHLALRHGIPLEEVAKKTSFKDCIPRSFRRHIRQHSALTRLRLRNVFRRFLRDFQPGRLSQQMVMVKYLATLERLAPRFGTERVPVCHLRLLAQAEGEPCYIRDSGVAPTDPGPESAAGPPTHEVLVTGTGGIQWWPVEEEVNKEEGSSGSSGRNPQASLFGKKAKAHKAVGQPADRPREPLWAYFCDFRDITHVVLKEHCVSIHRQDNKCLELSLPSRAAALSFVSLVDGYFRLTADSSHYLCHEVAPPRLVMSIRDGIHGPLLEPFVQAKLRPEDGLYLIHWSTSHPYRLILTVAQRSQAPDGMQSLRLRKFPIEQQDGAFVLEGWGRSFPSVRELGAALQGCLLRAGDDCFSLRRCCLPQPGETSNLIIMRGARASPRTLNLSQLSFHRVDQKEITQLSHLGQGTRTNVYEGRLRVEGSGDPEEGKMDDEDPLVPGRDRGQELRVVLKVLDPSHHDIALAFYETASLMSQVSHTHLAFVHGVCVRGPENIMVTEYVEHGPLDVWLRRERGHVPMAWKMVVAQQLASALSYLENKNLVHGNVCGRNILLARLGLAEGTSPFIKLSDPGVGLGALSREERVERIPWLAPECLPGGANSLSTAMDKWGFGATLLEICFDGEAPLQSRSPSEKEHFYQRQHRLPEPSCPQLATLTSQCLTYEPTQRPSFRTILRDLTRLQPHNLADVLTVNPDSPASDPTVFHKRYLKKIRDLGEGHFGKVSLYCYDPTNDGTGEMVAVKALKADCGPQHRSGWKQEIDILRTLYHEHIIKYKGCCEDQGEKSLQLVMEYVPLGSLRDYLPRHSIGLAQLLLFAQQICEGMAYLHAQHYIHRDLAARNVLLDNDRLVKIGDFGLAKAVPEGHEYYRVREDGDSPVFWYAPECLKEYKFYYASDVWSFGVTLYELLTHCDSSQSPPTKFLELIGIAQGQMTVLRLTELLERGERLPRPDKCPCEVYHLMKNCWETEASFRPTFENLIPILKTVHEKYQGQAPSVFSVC
Chain of JAK2 (O60674 whole entry): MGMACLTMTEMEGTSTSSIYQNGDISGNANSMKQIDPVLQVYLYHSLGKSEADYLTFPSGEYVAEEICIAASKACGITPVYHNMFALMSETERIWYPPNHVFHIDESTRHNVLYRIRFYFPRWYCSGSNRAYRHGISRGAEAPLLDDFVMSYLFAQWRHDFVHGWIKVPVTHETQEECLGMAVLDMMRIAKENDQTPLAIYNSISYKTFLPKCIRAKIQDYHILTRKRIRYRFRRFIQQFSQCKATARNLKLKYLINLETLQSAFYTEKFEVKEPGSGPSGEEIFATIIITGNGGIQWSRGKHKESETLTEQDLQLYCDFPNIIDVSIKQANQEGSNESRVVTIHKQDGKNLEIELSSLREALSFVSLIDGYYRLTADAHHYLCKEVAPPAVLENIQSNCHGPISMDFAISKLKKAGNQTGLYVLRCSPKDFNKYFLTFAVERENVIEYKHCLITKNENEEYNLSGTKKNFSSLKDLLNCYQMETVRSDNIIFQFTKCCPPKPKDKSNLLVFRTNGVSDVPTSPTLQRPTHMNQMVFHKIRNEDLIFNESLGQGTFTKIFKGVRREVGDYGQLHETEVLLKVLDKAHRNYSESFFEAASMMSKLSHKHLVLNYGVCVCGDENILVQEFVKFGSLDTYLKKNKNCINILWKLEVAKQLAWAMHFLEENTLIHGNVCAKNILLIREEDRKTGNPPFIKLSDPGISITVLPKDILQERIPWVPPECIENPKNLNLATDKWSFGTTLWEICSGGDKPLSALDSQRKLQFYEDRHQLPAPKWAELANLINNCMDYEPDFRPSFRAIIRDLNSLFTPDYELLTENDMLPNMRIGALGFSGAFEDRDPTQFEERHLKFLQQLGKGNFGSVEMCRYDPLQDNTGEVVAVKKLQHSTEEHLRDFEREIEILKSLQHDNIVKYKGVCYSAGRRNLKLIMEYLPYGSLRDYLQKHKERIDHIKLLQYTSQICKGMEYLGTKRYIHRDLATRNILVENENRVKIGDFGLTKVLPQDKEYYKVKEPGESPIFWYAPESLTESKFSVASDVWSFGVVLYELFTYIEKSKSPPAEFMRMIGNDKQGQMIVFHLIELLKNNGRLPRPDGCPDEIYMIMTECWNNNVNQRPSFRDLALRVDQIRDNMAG
Chain of JAK1 (P23458 whole entry): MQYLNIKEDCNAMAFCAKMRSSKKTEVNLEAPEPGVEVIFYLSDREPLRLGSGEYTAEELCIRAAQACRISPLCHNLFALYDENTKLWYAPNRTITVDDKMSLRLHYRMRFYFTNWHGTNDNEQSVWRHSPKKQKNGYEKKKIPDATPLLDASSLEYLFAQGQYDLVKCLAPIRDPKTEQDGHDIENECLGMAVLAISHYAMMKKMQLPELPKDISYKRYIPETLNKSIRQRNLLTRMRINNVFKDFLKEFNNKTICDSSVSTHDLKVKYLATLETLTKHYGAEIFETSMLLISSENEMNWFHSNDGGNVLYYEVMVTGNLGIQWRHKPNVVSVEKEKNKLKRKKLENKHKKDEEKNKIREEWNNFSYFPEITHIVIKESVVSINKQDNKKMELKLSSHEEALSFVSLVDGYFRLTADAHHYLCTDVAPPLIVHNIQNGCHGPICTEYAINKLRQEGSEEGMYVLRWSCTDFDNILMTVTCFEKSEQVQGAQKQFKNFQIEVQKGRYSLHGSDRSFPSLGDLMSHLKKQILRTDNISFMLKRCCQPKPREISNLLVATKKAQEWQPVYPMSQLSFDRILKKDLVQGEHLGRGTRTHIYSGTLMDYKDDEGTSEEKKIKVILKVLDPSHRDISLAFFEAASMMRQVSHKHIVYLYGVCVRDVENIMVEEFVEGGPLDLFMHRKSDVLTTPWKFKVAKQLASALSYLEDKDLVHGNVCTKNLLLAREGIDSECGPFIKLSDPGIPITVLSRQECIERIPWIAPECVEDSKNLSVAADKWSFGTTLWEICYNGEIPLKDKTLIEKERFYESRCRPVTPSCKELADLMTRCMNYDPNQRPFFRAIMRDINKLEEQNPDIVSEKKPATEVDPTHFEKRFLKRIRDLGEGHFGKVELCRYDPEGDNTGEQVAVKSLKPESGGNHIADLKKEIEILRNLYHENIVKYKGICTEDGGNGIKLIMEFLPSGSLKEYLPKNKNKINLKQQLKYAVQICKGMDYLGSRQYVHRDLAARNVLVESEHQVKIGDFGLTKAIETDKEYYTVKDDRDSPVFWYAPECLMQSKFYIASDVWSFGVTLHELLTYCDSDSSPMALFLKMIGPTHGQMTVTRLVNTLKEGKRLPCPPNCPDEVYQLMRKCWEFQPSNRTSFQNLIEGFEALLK

`Cc1cnc(Nc2ccc(OCCN(C)C)cc2)nc1-c1cnn(CC2(CF)CC2)c1` [(C)CCOC1═CC═C(NC2═NC]: the IC50 is less than 100 nM at JAK1, less than 100 nM against JAK3, less than 10 nM at JAK2 and less than 100 nM against TYK2.
On to `Cc1cnc(Nc2ccc(N3CCOCC3)cc2)nc1-c1cnn(CC2(C#N)CC2)c1` [C(C1═C(N═C(NC2═CC═C(C═C2)N3CCOCC3)], for which the IC50 at JAK1 is less than 100 nM; on JAK3 it was less than 10 nM; against JAK2, less than 10 nM; on TYK2, less than 10 nM.
For `Cc1cnc(NC2CCOCC2)nc1-c1cnn(CCC#N)c1` [CC1═C(N═C(NC2CCOCC2)N═C1)C3═C[N]], the IC50 is less than 100000 nM against JAK1, greater than 50000 nM on JAK3, less than 100000 nM against JAK2 and greater than 50000 nM against TYK2.
Turning to `Cc1cnc(Nc2cccc3c2CNC3=O)nc1-c1cnn(CC2(Cl)CC2)c1` [CC1═C(N═C(NC2═C3CNC], the IC50 against JAK1 is less than 100000 nM; against JAK3, less than 1000 nM; on JAK2 it was less than 100 nM; on TYK2, less than 100000 nM.
Take `Cc1cnc(Nc2ccc(N3CC4(COC4)C3)cc2)nc1-c1cnn(CC2(CF)CC2)c1` [CC1═C(N═C(NC2═CC(═C(C═C2)N3CC4]: the IC50 against JAK1 was less than 100 nM; on JAK3 it was less than 10 nM; on JAK2 it was less than 10 nM; at TYK2 it was less than 10 nM.
As to `Cc1cnc(Nc2cccc(CCO)c2)nc1-c1cnn(CC2(CF)CC2)c1` [CC1═C(N═C(NC2═CC(═CC═C2)CCO)N═C1)C3═C[N]], the IC50 at JAK1, against JAK3, on JAK2 and at TYK2 was less than 10 nM throughout.
For the compound `Cc1cnc(Nc2cccc(C(N)=O)c2)nc1-c1cnn(CC2(CF)CC2)c1` [CC1═C(N═C(NC2═CC(═CC═C2)C], the IC50 on JAK1 was less than 100 nM; against JAK3 it was less than 100 nM; at JAK2 it was less than 10 nM; on TYK2, less than 10 nM.
In the case of `Cc1cnc(Nc2cc(CO)ns2)nc1-c1cnn(CC2(CF)CC2)c1` [CC1═C(N═C(NC2═CC(═NS2)CO)N═C1)C3═C[N]], the IC50 at JAK1, at JAK3, against JAK2 and against TYK2 was less than 10 nM each time.
As for `Cc1cnc(Nc2cc(COC(=O)CCN3CCOCC3)ns2)nc1-c1cnn(CC2(CF)CC2)c1` [CC1═C(N═C(NC2═CC(═NS2)COC], the IC50 at JAK1 is less than 100 nM; against JAK3 it was less than 10 nM; on JAK2, less than 10 nM; against TYK2, less than 10 nM.
Take `Cc1cnc(Nc2cc(C(=O)O)ns2)nc1-c1cnn(CC2(CF)CC2)c1` [CC1═C(N═C(NC2═CC(═NS2)C]: the IC50 on JAK1 was less than 100 nM; at JAK3 it was less than 100 nM; against JAK2, less than 10 nM; on TYK2 it was less than 100 nM.
`Cc1cnc(Nc2ccc(S(C)(=O)=O)c(F)c2)nc1-c1cnn(CC2(Cl)CC2)c1` [CC1═C(N═C(NC2═CC═C(C(═C2)F)[S]]: the half-maximal inhibitory concentration (IC50) was less than 100 nM against JAK1, less than 100 nM against JAK3, less than 10 nM at JAK2 and less than 10 nM against TYK2.
As for `Cc1cnc(Nc2ccc(CN3CCOCC3)cc2)nc1` [CC1═C(N═C(NC2═CC═C(CN3CCOCC3)C═C2)N═C1)], the IC50 at JAK1 was less than 100 nM; at JAK3 it was less than 10 nM; at JAK2 it was less than 10 nM; at TYK2, less than 100 nM.
Take `Cc1cnc(Nc2ccc(CNC(=O)OC(C)(C)C)cc2)nc1-c1cnn(CC2(CF)CC2)c1` [CC1═C(N═C(NC2═CC═C(CNC(═O)OC]: the half-maximal inhibitory concentration (IC50) at JAK1 is less than 100 nM; against JAK3, less than 100 nM; against JAK2 it was less than 10 nM; against TYK2 it was less than 100 nM.
As for `Cc1cnc(Nc2ccc(CO)c(CO)c2)nc1-c1cnn(CC2(CF)CC2)c1` [CC1═C(N═C(NC2═CC═C(CO)C], the IC50 against JAK1 is less than 100 nM; against JAK3, less than 100 nM; at JAK2 it was less than 10 nM; on TYK2, less than 10 nM.
Take `Cc1cnc(Nc2ccc(C3CN(C(=O)OC(C)(C)C)C3)cc2)nc1-c1cnn(CCC#N)c1` [CC1═C(N═C(NC2═CC═C(C═C2)C3CN]: the IC50 against JAK1 is less than 100 nM; at JAK3, less than 100 nM; against JAK2 it was less than 10 nM; against TYK2, less than 10 nM.
`Cc1cnc(Nc2ccc(N3CC4(COC4)C3)cc2)nc1-c1cnn(CC2(CF)CC2)c1` [CC1═C(N═C(NC2═CC═C(C═C2)N3CC4]: the half-inhibitory concentration (IC50) against JAK1 is less than 100 nM; at JAK3, less than 10 nM; against JAK2, less than 10 nM; against TYK2, less than 100 nM.
For the compound `Cc1cnc(Nc2ccc(N3CCN(C(=O)OC(C)(C)C)CC3)cc2)nc1-c1cnn(CC2(CF)CC2)c1` [CC1═C(N═C(NC2═CC═C(C═C2)N3CCN], the half-inhibitory concentration (IC50) was less than 1000 nM on JAK1, less than 100 nM against JAK3, less than 10 nM against JAK2 and less than 100 nM against TYK2.
With `Cc1cnc(Nc2cccc(C(N)=O)c2)nc1-c1cnn(CC2(CF)CC2)c1` [CC1═C(N═C(NC2═CC═CC(═C2)C], the concentration for half-maximal inhibition (IC50) against JAK3 was less than 100 nM; against JAK2, less than 10 nM.
Regarding `Cc1cnc(Nc2ccns2)nc1-c1cnn(CC2(CF)CC2)c1` [CC1═C(N═C(NC2═CC═NS2)N═C1)C3═C[N]], the half-inhibitory concentration (IC50) at JAK2 is less than 10 nM.
For `Cc1cnc(NCCN2CCOCC2)nc1-c1cnn(CCC#N)c1` [CC1═C(N═C(NCCN2CCOCC2)N═C1)C3═C[N]], the IC50 was less than 100000 nM against JAK1, greater than 50000 nM at JAK3 and less than 100000 nM on JAK2.
Turning to `Cc1ccc(S(=O)(=O)Nc2ncc(Cl)c(-c3cnn(CCC#N)c3)n2)cc1` [CC1═CC═C(C═C1)[S](═O)(═O)NC2═NC], the half-maximal inhibitory concentration (IC50) against JAK2 and against TYK2 was less than 100000 nM throughout.
On to `Cc1cnc(Nc2cccc3c2CN(C)C3)nc1-c1cnn(CC2(Cl)CC2)c1` [CN1CC2═CC═CC(═C2C1)NC3═NC(═C], for which the IC50 at JAK1 was less than 100000 nM; against JAK3, less than 100000 nM; against JAK2, less than 1000 nM.
As to `N#CCCn1cc(-c2nc(N(C(=O)c3ccccc3)C(=O)c3ccccc3)ncc2Cl)cn1` [ClC1═C(N═C(N═C1)N(C(═O)C2═CC═CC═C2)C], the IC50 on JAK2 is less than 100000 nM.
